Data reported in ChEMBL document CHEMBL1133164, “N-[[(5-methyl-3-phenylisoxazol-4-yl)-phenyl]sulfonyl]propanamide, sodium salt, parecoxib sodium: A potent and selective inhibitor of COX-2 for parenteral administration” (J Med Chem, 2000).
Values belong to the molecule of their own block, whether it stands above or below them.

How the values were obtained:
Rattus norvegicus [1] = organism: Rattus norvegicus; assay: Compound was tested for the antiinflammatory activity in carrageenan air pouch model of inflammation; type: functional
[2] = biological target: Prostaglandin G/H synthase 1 (Homo sapiens, UniProt P23219); assay: Compound was tested for its inhibitory activity against recombinant human Prostaglandin G/H synthase 1
[3] = biological target: T1, Prostaglandin G/H synthase 2 (Homo sapiens, UniProt P35354)
T1 sequence (P35354 whole entry): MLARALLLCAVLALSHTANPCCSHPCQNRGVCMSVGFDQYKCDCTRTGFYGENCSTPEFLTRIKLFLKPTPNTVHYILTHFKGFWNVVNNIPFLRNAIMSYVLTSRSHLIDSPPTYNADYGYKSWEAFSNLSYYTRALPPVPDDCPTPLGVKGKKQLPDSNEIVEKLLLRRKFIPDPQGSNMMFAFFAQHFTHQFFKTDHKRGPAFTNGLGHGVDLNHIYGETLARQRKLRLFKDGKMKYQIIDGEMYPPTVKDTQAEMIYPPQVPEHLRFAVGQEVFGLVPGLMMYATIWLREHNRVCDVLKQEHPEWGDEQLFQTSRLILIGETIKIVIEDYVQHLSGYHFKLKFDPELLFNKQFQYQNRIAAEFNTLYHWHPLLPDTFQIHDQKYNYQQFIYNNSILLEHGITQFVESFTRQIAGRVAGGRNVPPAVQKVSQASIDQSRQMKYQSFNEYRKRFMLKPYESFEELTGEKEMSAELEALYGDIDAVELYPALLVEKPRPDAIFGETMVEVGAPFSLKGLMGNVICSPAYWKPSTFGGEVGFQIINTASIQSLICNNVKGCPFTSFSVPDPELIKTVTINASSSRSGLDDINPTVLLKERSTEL
Description: Compound was tested for its inhibitory activity against recombinant human Prostaglandin G/H synthase 2

Rattus norvegicus [4] = assay: Compound was tested for complete blockade of carrageenan induced hyperalgesia within 1 hr after iv administration; type: functional
[5] = In vivo mean elimination half life in the male rat by intravenous administration of the compound; type: ADME, organism-based
Rattus norvegicus [6] = assay: Compound was tested for the percentage inhibition at 0.3 mg/kg in carrageenan air pouch assay.; type: functional
[7] = In vivo mean elimination half life in the cynomolgus monkeys by intravenous administration of the compound; type: ADME, organism-based, Macaca fascicularis; conditions: cynomolgus monkey
Rattus norvegicus [8] = organism: Rattus norvegicus; assay: Compound was tested for the chronic antiinflammatory activity in rat adjuvant arthritis model; type: functional
[9] = In vivo mean elimination half life in the female dogs by intravenous administration of the compound; type: ADME, organism-based, Canis lupus familiaris; conditions: dog
Rattus norvegicus [10] = organism: Rattus norvegicus; assay: Compound was tested for the antiinflammatory activity in rat adjuvant arthritis model; type: functional

Chain of Prostaglandin G/H synthase 1 (P23219 whole entry): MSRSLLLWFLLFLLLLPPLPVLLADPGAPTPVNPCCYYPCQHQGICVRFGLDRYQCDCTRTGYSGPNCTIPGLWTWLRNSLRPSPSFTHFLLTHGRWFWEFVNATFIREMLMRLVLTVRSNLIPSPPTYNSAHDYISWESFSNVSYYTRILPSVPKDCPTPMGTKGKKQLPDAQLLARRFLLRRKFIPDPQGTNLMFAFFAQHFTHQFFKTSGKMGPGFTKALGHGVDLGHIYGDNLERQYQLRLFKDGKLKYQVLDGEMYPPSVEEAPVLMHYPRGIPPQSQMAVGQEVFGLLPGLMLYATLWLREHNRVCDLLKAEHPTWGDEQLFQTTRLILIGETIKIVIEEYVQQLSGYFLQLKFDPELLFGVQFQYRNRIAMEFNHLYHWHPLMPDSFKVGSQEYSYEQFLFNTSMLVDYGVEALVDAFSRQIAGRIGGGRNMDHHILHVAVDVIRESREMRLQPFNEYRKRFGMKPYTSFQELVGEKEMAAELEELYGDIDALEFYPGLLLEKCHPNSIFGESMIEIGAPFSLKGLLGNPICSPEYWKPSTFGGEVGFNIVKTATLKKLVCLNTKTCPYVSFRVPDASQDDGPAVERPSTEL

IC50 [2]: 100 µM
IC50 [3]: 20 µM
SMILES: CC(=O)[N-]S(=O)(=O)c1ccc(-c2c(-c3ccccc3)noc2C)cc1.[Na+]
ED50 (Rattus norvegicus [1]): 0.5 mg/kg

half-life [5]: 8.1 min
half-life [7]: 72.6 min
half-life [9]: 33.2 min
SMILES: CCC(=O)[N-]S(=O)(=O)c1ccc(-c2c(-c3ccccc3)noc2C)cc1.[Na+] [PARECOXIB SODIUM]
ED50 (Rattus norvegicus [4]): 5 mg/kg
inhibition in vivo at 0.3 mg/kg (Rattus norvegicus [6]): 98%
ED50 (Rattus norvegicus [8]): 0.08 mg/kg

SMILES: Cc1onc(-c2ccccc2)c1-c1ccc(S(N)(=O)=O)cc1 [VALDECOXIB]
ED50 (Rattus norvegicus [10]): 0.08 mg/kg
